Measured values published in paper PMC7232201 (Microorganisms, 2020).
Where a name gives a salt, the structure may show the parent alone.

Biological target: T1, ArsR (Helicobacter pylori, UniProt O24973)
T1 construct: expressed in E. coli BL21(DE3)
Assay: isothermal titration calorimetry
Format: binding
Conditions: read-out: ITC ^a / Kd

T1 sequence (O24973 whole entry): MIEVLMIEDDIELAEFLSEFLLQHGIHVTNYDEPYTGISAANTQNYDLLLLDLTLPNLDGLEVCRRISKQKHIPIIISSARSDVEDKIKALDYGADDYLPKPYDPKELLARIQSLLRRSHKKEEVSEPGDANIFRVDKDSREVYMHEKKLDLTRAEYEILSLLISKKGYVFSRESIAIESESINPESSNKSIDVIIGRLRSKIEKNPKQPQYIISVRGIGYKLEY

| Compound | Kd |
| --- | --- |
| C[C@H](CCC(=O)O)[C@H]1CC[C@H]2[C@@H]3CC[C@@H]4C[C@H](O)CC[C@]4(C)[C@H]3CC[C@]12C [Lithocholic acid] | 4.9 µM |
| CCCCCN(CCCCC)C(=O)C(CCC(=O)O)NC(=O)c1ccc(Cl)c(Cl)c1 (stereo not drawn) [Lorglumide sodium salt] | 0.67 µM |
| CC[N+](C)(CC)CCC[n+]1c(-c2ccccc2)c2cc(N)ccc2c2ccc(N)cc21 [Propidium iodide] | 18 µM |
